{"source": "patent US20190240236A1", "about": "“ORAL TESTOSTERONE UNDECANOATE THERAPY” (Lipocine Inc., priority 2016, published 2019)", "assay": "Clinic Study of Testosterone Therapy for hypogonadal males: serum T Cavg and Cmax after oral TU fixed dose regimens", "format": "in vivo, human", "conditions": "for Cavg > 300 ng/dL ≥75% patients / Cavg > 300 ng/dL ≥80% patients: with food (at least 10 g fat)", "experimental": "Fixed Dose Dosing Regimen Examples Based on Study Described Below for Estimated or Actual Cavg (Administered with Food with at Least 10 g of Fat)\nThe dosage form from Example B of Composition 4 with dosing regimen (Regimen #9-16) of dosing category BID-equal dose with daily dose range 150-600 mg were used for a Clinic Study of Testosterone Therapy for hypogonadal males.\nThe clinical study was a randomized double-blind, placebo-controlled dose escalating study of the safety, efficacy, tolerability, and pharmacokinetics of testosterone therapy in hypogonadal males. This clinic study was a single and multiple, ascending-dose study that was designed to determine the optimal starting, titration (if appropriate), or single fixed dose for safety and efficacy targeted by the US FDA. The study also verified the time for testosterone levels to reach steady state and identified a suitable fixed dose dosing regimen that satisfies an unmet need for safety and efficacy for oral TT.\nThis study was carried out with conditions of a single-center, randomized, double-blind, placebo-controlled, ascending multiple-dose, and serial-group in adult hypogonadal male subjects. The objectives of this study were: • a) To assess the safety, efficacy, and tolerability of escalating single and multiple oral doses of TU dosage forms in hypogonadal males • b) To determine the pharmacokinetics (PK) of testosterone (T), DHT, TU, DHTU, and estradiol (E2) after single and multiple oral doses of TU dosage forms in hypogonadal males • C) To identify a fixed dose dosing regimen satisfying US FDA targets, without needing to titrate, for restoring serum T levels in hypogonadal males to the normal T range.\nThe dosing regimen for this clinical study ranged from 150 mg daily dose (75 mg BID dose) to 600 mg daily dose (300 mg BID dose). Observed pharmacokinetic parameters (T, DHT, TU, DHTU, and E2) after single and multiple oral doses of TU dosage forms in the patients were recorded in connection with each daily dose listed in the report.\nThe overall analyzed results of this clinical study were plotted according to % of patients for safety (Cmax<1,500 ng/dL) and efficacy (Cavg>300 ng/dL) with a variety of dosing regimens. Note that only doses that were multiples of 75 mg were tested in the clinical study, the results predicted for the other doses are estimated from these values.", "key": {"[1]": {"conditions": "Daily dose 410 mg, each BID dose 205 mg"}, "[2]": {"conditions": "Daily dose 420 mg, each BID dose 210 mg"}, "[3]": {"conditions": "Daily dose 430 mg, each BID dose 215 mg"}, "[4]": {"conditions": "Daily dose 438 mg, each BID dose 219 mg"}, "[5]": {"conditions": "Daily dose 450 mg, each BID dose 225 mg"}, "[6]": {"conditions": "Daily dose 460 mg, each BID dose 230 mg"}, "[7]": {"conditions": "Daily dose 474 mg, each BID dose 237 mg"}, "[8]": {"conditions": "Daily dose 480 mg, each BID dose 240 mg"}, "[9]": {"conditions": "Daily dose 490 mg, each BID dose 245 mg"}, "[10]": {"conditions": "Daily dose 500 mg, each BID dose 250 mg"}, "[11]": {"conditions": "Daily dose 518 mg, each BID dose 259 mg"}, "[12]": {"conditions": "Regimen 1, TID-equal dose, TU 75/75/75 mg"}, "[13]": {"conditions": "Regimen 2, TID-equal dose, TU 112/112/112 mg"}, "[14]": {"conditions": "Regimen 3, TID-equal dose, TU 125/125/125 mg"}, "[15]": {"conditions": "Regimen 4, TID-equal dose, TU 150/150/150 mg"}, "[16]": {"conditions": "Regimen 5, TID-equal dose, TU 188/188/188 mg"}, "[17]": {"conditions": "Regimen 6, TID-equal dose, TU 225/225/225 mg"}, "[18]": {"conditions": "Regimen 7, TID-equal dose, TU 237/237/237 mg"}, "[19]": {"conditions": "Regimen 8, TID-equal dose, TU 250/250/250 mg"}, "[20]": {"conditions": "Regimen 9, BID-equal dose (AM/PM), TU 75/75 mg"}, "[21]": {"conditions": "Regimen 10, BID-equal dose (AM/PM), TU 150/150 mg"}, "[22]": {"conditions": "Regimen 11, BID-equal dose (AM/PM), TU 215/215 mg"}, "[23]": {"conditions": "Regimen 12, BID-equal dose (AM/PM), TU 225/225 mg"}, "[24]": {"conditions": "Regimen 13, BID-equal dose (AM/PM), TU 237/237 mg"}, "[25]": {"conditions": "Regimen 14, BID-equal dose (AM/PM), TU 250/250 mg"}, "[26]": {"conditions": "Regimen 15, BID-equal dose (AM/PM), TU 265/265 mg"}, "[27]": {"conditions": "Regimen 16, BID-equal dose (AM/PM), TU 300/300 mg"}, "[28]": {"conditions": "Regimen 17, BID-different dose (AM/PM), TU 75/225 mg"}, "[29]": {"conditions": "Regimen 18, BID-different dose (AM/PM), TU 75/300 mg"}, "[30]": {"conditions": "Regimen 19, BID-different dose (AM/PM), TU 150/225 mg"}, "[31]": {"conditions": "Regimen 20, BID-different dose (AM/PM), TU 225/150 mg"}, "[32]": {"conditions": "Regimen 21, BID-different dose (AM/PM), TU 225/300 mg"}, "[33]": {"conditions": "Regimen 22, BID-different dose (AM/PM), TU 300/75 mg"}, "[34]": {"conditions": "Regimen 23, BID-different dose (AM/PM), TU 300/150 mg"}, "[35]": {"conditions": "Regimen 24, BID-different dose (AM/PM), TU 300/225 mg"}}, "data": [{"smiles": "CCCCCCCCCCC(=O)O[C@H]1CC[C@H]2[C@@H]3CCC4=CC(=O)CC[C@]4(C)[C@H]3CC[C@]12C", "note": "[TU, testosterone undecanoate]", "values": [{"measurement": "% with Cavg/day > 300 ng/dL", "setting": "[1]", "result": 71.5, "unit": "%"}, {"measurement": "% with Cmax/dose < 1,500 ng/dL", "setting": "[1]", "result": 93.7, "unit": "%"}, {"measurement": "% with Cavg/day > 300 ng/dL", "setting": "[2]", "result": 74.9, "unit": "%"}, {"measurement": "% with Cmax/dose < 1,500 ng/dL", "setting": "[2]", "result": 92.8, "unit": "%"}, {"measurement": "% with Cavg/day > 300 ng/dL", "setting": "[3]", "result": 77.6, "unit": "%"}, {"measurement": "% with Cmax/dose < 1,500 ng/dL", "setting": "[3]", "result": 92.1, "unit": "%"}, {"measurement": "% with Cavg/day > 300 ng/dL", "setting": "[4]", "result": 80.0, "unit": "%"}, {"measurement": "% with Cmax/dose < 1,500 ng/dL", "setting": "[4]", "result": 91.2, "unit": "%"}, {"measurement": "% with Cavg/day > 300 ng/dL", "setting": "[5]", "result": 83.5, "unit": "%"}, {"measurement": "% with Cmax/dose < 1,500 ng/dL", "setting": "[5]", "result": 89.9, "unit": "%"}, {"measurement": "% with Cavg/day > 300 ng/dL", "setting": "[6]", "result": 85.6, "unit": "%"}, {"measurement": "% with Cmax/dose < 1,500 ng/dL", "setting": "[6]", "result": 88.9, "unit": "%"}, {"measurement": "% with Cavg/day > 300 ng/dL", "setting": "[7]", "result": 88.9, "unit": "%"}, {"measurement": "% with Cmax/dose < 1,500 ng/dL", "setting": "[7]", "result": 86.8, "unit": "%"}, {"measurement": "% with Cavg/day > 300 ng/dL", "setting": "[8]", "result": 90.0, "unit": "%"}, {"measurement": "% with Cmax/dose < 1,500 ng/dL", "setting": "[8]", "result": 86.1, "unit": "%"}, {"measurement": "% with Cavg/day > 300 ng/dL", "setting": "[9]", "result": 91.7, "unit": "%"}, {"measurement": "% with Cmax/dose < 1,500 ng/dL", "setting": "[9]", "result": 84.6, "unit": "%"}, {"measurement": "% with Cavg/day > 300 ng/dL", "setting": "[10]", "result": 93.0, "unit": "%"}, {"measurement": "% with Cmax/dose < 1,500 ng/dL", "setting": "[10]", "result": 83.2, "unit": "%"}, {"measurement": "% with Cavg/day > 300 ng/dL", "setting": "[11]", "result": 95.2, "unit": "%"}, {"measurement": "% with Cmax/dose < 1,500 ng/dL", "setting": "[11]", "result": 80.0, "unit": "%"}, {"measurement": "Cavg > 300 ng/dL ≥75% patients", "setting": "[12]", "result": "No"}, {"measurement": "Cavg > 300 ng/dL ≥80% patients", "setting": "[12]", "result": "No"}, {"measurement": "Cavg > 300 ng/dL ≥75% patients", "setting": "[13]", "result": "No"}, {"measurement": "Cavg > 300 ng/dL ≥80% patients", "setting": "[13]", "result": "No"}, {"measurement": "Cavg > 300 ng/dL ≥75% patients", "setting": "[14]", "result": "No"}, {"measurement": "Cavg > 300 ng/dL ≥80% patients", "setting": "[14]", "result": "No"}, {"measurement": "Cavg > 300 ng/dL ≥75% patients", "setting": "[15]", "result": "Yes"}, {"measurement": "Cavg > 300 ng/dL ≥80% patients", "setting": "[15]", "result": "Yes"}, {"measurement": "Cavg > 300 ng/dL ≥75% patients", "setting": "[16]", "result": "Yes"}, {"measurement": "Cavg > 300 ng/dL ≥80% patients", "setting": "[16]", "result": "Yes"}, {"measurement": "Cavg > 300 ng/dL ≥75% patients", "setting": "[17]", "result": "Yes"}, {"measurement": "Cavg > 300 ng/dL ≥80% patients", "setting": "[17]", "result": "Yes"}, {"measurement": "Cavg > 300 ng/dL ≥75% patients", "setting": "[18]", "result": "Yes"}, {"measurement": "Cavg > 300 ng/dL ≥80% patients", "setting": "[18]", "result": "Yes"}, {"measurement": "Cavg > 300 ng/dL ≥75% patients", "setting": "[19]", "result": "Yes"}, {"measurement": "Cavg > 300 ng/dL ≥80% patients", "setting": "[19]", "result": "Yes"}, {"measurement": "Cavg > 300 ng/dL ≥75% patients", "setting": "[20]", "result": "No"}, {"measurement": "Cavg > 300 ng/dL ≥80% patients", "setting": "[20]", "result": "No"}, {"measurement": "Cavg > 300 ng/dL ≥75% patients", "setting": "[21]", "result": "No"}, {"measurement": "Cavg > 300 ng/dL ≥80% patients", "setting": "[21]", "result": "No"}, {"measurement": "Cavg > 300 ng/dL ≥75% patients", "setting": "[22]", "result": "Yes"}, {"measurement": "Cavg > 300 ng/dL ≥80% patients", "setting": "[22]", "result": "No"}, {"measurement": "Cavg > 300 ng/dL ≥75% patients", "setting": "[23]", "result": "Yes"}, {"measurement": "Cavg > 300 ng/dL ≥80% patients", "setting": "[23]", "result": "Yes"}, {"measurement": "Cavg > 300 ng/dL ≥75% patients", "setting": "[24]", "result": "Yes"}, {"measurement": "Cavg > 300 ng/dL ≥80% patients", "setting": "[24]", "result": "Yes"}, {"measurement": "Cavg > 300 ng/dL ≥75% patients", "setting": "[25]", "result": "Yes"}, {"measurement": "Cavg > 300 ng/dL ≥80% patients", "setting": "[25]", "result": "Yes"}, {"measurement": "Cavg > 300 ng/dL ≥75% patients", "setting": "[26]", "result": "Yes"}, {"measurement": "Cavg > 300 ng/dL ≥80% patients", "setting": "[26]", "result": "Yes"}, {"measurement": "Cavg > 300 ng/dL ≥75% patients", "setting": "[27]", "result": "Yes"}, {"measurement": "Cavg > 300 ng/dL ≥80% patients", "setting": "[27]", "result": "Yes"}, {"measurement": "Cavg > 300 ng/dL ≥75% patients", "setting": "[28]", "result": "No"}, {"measurement": "Cavg > 300 ng/dL ≥80% patients", "setting": "[28]", "result": "No"}, {"measurement": "Cavg > 300 ng/dL ≥75% patients", "setting": "[29]", "result": "No"}, {"measurement": "Cavg > 300 ng/dL ≥80% patients", "setting": "[29]", "result": "No"}, {"measurement": "Cavg > 300 ng/dL ≥75% patients", "setting": "[30]", "result": "No"}, {"measurement": "Cavg > 300 ng/dL ≥80% patients", "setting": "[30]", "result": "No"}, {"measurement": "Cavg > 300 ng/dL ≥75% patients", "setting": "[31]", "result": "Yes"}, {"measurement": "Cavg > 300 ng/dL ≥80% patients", "setting": "[31]", "result": "No"}, {"measurement": "Cavg > 300 ng/dL ≥75% patients", "setting": "[32]", "result": "Yes"}, {"measurement": "Cavg > 300 ng/dL ≥80% patients", "setting": "[32]", "result": "Yes"}, {"measurement": "Cavg > 300 ng/dL ≥75% patients", "setting": "[33]", "result": "No"}, {"measurement": "Cavg > 300 ng/dL ≥80% patients", "setting": "[33]", "result": "No"}, {"measurement": "Cavg > 300 ng/dL ≥75% patients", "setting": "[34]", "result": "Yes"}, {"measurement": "Cavg > 300 ng/dL ≥80% patients", "setting": "[34]", "result": "Yes"}, {"measurement": "Cavg > 300 ng/dL ≥75% patients", "setting": "[35]", "result": "Yes"}, {"measurement": "Cavg > 300 ng/dL ≥80% patients", "setting": "[35]", "result": "Yes"}, {"measurement": "US FDA T level targets for safety and efficacy", "setting": "fixed dose regimen, 430 mg TU daily dose (215 mg BID-equal dose) to 480 mg TU daily dose (240 mg BID-equal dose), no titration", "result": "can satisfy US FDA T level targets for safety and efficacy without titration"}]}]}
